Test results: ChEMBL document CHEMBL3301451, “MMV Malaria Box gametocyte functional viability assay screening”

How the values were obtained:
Plasmodium berghei [1] = experiment: (§1) MMV: P. berghei-infected blood was withdrawn from mice by cardiac pucture before being immediately added to ookinete culture medium containing test compounds. 26 hr later, GFP-positive ookinetes were identified and counted by automated microscopy. All compounds were tested in 4 independent experiments and data presented here is the mean. IC50s determined for selected compounds.; type: functional, organism-based
Plasmodium falciparum [2] = experiment: (§2) MMV: P. falciparum NF54 functionally mature Stage V gametocytes were incubated for 24 hr in the presence of the test compounds. Gamete formation was then triggered by addition of 2uM xantheurenic acid and temperature decrease to ~20C. Male gamete exflagellation was recorded and analysed by automated microscopy after 20 min. All compounds were tested in 4 independent experiments and data presented here is the mean. IC50s determined for selected compounds.; type: functional, organism-based
Plasmodium berghei [3] = experiment: as §1, with “mean.” for “mean. IC50s determined for selected compounds.”; type: functional; parameters: concentration or dose not given beside the values
Plasmodium falciparum [4] = experiment: as §2, with “Female” for “Male”, “formation” for “exflagellation”, “24 hr later” for “and analysed”, “detection of surface labelling of female gametes with a Cy3-conjugated antibody reactive to Pfs25.” for “after 20 min.”; type: functional, organism-based; details: NF54, 24 h
Plasmodium falciparum [5] = experiment: as §2, with “mean.” for “mean. IC50s determined for selected compounds.”; type: functional; parameters: concentration or dose not given beside the values
Plasmodium falciparum [6] = experiment: as §2, with “Female” for “Male”, “formation” for “exflagellation”, “24 hr later” for “and analysed”, “detection of surface labelling of female gametes with a Cy3-conjugated antibody reactive to Pfs25.” for “after 20 min.”, “mean.” for “mean. IC50s determined for selected compounds.”; type: functional; parameters: concentration or dose not given beside the values; details: NF54, 24 h

Structure (SMILES) | IC50 (Plasmodium berghei [1]) [nM] | IC50 (Plasmodium falciparum [2]) [nM] | inhibition (Plasmodium berghei [3]) [%] | IC50 (Plasmodium falciparum [4]) [nM] | inhibition (Plasmodium falciparum [5]) [%] | inhibition (Plasmodium falciparum [6]) [%]
CC1CC2=C(CC1CNCCCN(C)C)C(C)(C)CCC2 (configuration not stated) | 6500 | 139 | -10.78 | 189 | 62.3 | 56.1
COc1ccc(C=C2SC(=N)N(c3ccccc3OC)C2=O)cc1 | 96.2 | 481 | 72.74 | > 50000 | 77.3 | -7.34
CN(C)CCCNc1c2ccccc2nc2ccccc12 | 292 | 130 | 96.2 | 1070 | 97.5 | 24.6
O=C1c2ccccc2C2=Nc3ccccc3SC(c3cccc(F)c3)C12 (configuration not stated) | 1060 | 2140 | 71.31 | > 50000 | 70.7 | 11
OC1CCCCC1C1(NC(=S)Nc2ccccc2)CCCCC1 (configuration not stated) | 16400 | 384 | 14.01 | 614 | 80.7 | 73.8
CCOC(=O)c1cn(CC)c2cc(N3CCCCC3)c(F)cc2c1=O | 2190 | 365 | 41.89 | > 50000 | 92.4 | -15.2
OC1=C2C(=Nc3ccccc3SC2c2ccc(Br)cc2)c2ccccc21 (configuration not stated) | 2270 | 3410 | 56.77 | > 50000 | 62.9 | 8.27
CN(C)c1ccc(C(O)(c2ccc(N(C)C)cc2)c2ccc(N(C)C)cc2)cc1 [METHYLROSANILINE] | 991 | 977 | 62.53 | 446 | 19.7 | 44.6
Cl.Clc1cc(Br)ccc1-c1ccc(CNCC2CCNCC2)o1 | 7820 | 25.5 | -9.542 | 159 | 74.1 | 38.1
CCOC(=O)c1ccc2nc(-c3ccccc3)cc(O)c2c1 | 208 | 237 | 27.95 | > 50000 | 63.6 | 2.21
OC1=C2C(=Nc3ccccc3SC2c2ccccc2)c2ccccc21 (configuration not stated) | 12800 | 3240 | 97.46 | > 50000 | 58.8 | -16.4
COc1ccccc1NC1=C(N2CCCCC2)C(=O)c2ccccc2C1=O | 4250 | 96 | -14.08 | > 50000 | 96.8 | -15.9
CCn1c(CN2CCN(Cc3ccccc3)CC2)nc2cc(NC(=O)c3cccs3)ccc21 | 487 | 288 | 78.13 | > 50000 | 67.4 | -15.4
COc1cccc(NC(=O)[C@H](C(C)C)n2c(=O)[nH]c3ccccc3c2=O)c1 | 464 | 241 | 58.53 | 384 | 70.9 | 36.6
CCOC(=O)c1cnc2ccc(CC)cc2c1O | 287 | 570 | 97.88 | > 50000 | 65.8 | 9.93
COc1ccc(-c2cc3c(nn2)-c2ccccc2C3=O)cc1 | 5760 | 3710 | 2.461 | > 50000 | 71.3 | -5.89
COc1ccc(C2c3ccc4ccccc4c3Oc3ncn(CCCN(C)C)c(=N)c32)cc1 (configuration not stated) | 3490 | 183 | -7.365 | 473 | 83.6 | 27.3
